Measured values: patent publication US20100311606A1, “PHARMACOGENOMIC CELL LINE PANEL AND USE THEREOF” (priority 2007, published 2010)

What was measured:
[1] = test system: human lymphoblastoid cell lines; experiment: Gemcitabine and AraC cytotoxicity assay (MTS/PMS), Human Variation Panel; assay type: cell-based; conditions: 197 cell lines; mean±SD; 72 hours; read-out: Average unadjusted LC50
Description: (§1) Specifically, once cells grew at an exponential phase, 90 μl of cell suspension were placed into a 96 well flat plate (Corning, Corning, N.Y.) at a density of 5×10^4 cells/well. […] Experiments were performed in triplicate for each concentration. Medium alone was used as a blank, and cells treated with DMSO were used as controls for every plate. At end of the incubation, 20 μl combined MTS/PMS solution were added into each well and incubated at 37° C. for an additional 1-2 hours. The amount of soluble formazan was measured with a SAFIRE™ microplate reader (Tecan A G, Switzerland). An absorbance for the control cells ranging from 0.8 to 1.3 was considered to meet the standard of cytotoxicity assays for the analysis. The final cell viability for each well was calculated using the following formula: relative survival cell number=absorbance (drug-treated cells−blank)/absorbance (control cells−[…]). […] GI50 values at each concentration for each cell lines were then calculated based on the dose response curve. […] In addition, to functionally characterize the effect of the candidate genes on the sensitivity to both drugs, drug cytotoxicity with human tumor cell lines also was analyzed using an MTS assay. […]

[2] = test system: MDA-MB-231 breast cancer cells; experiment: Cytotoxicity (MTS) after siRNA knockdown of NT5C3 or FKBP5; assay type: cell-based, human; conditions: for Change of drug sensitivity after FKBP5 siRNA: FKBP5 specific siRNA vs negative siRNA
Description: (§2) Specifically, once cells grew at an exponential phase, 90 μl of cell suspension were placed into a 96 well flat plate (Corning, Corning, N.Y.) at a density of 5×10^4 cells/well. […] Experiments were performed in triplicate for each concentration. Medium alone was used as a blank, and cells treated with DMSO were used as controls for every plate. At end of the incubation, 20 μl combined MTS/PMS solution were added into each well and incubated at 37° C. for an additional 1-2 hours. The amount of soluble formazan was measured with a SAFIRE™ microplate reader (Tecan A G, Switzerland). An absorbance for the control cells ranging from 0.8 to 1.3 was considered to meet the standard of cytotoxicity assays for the analysis. The final cell viability for each well was calculated using the following formula: relative survival cell number=absorbance (drug-treated cells−blank)/absorbance (control cells−[…]). During the entire process from cell culture to cytotoxicity analysis, all cell lines were grown exponentially without antibiotics and were handled by one person under the same condition to minimize the variation introduced by handling. The final dose-response curve for each cell line was plotted based on either 4 parameter logistic with top=100%, or 4 parameter logistic with bottom=0% using an R package. GI50 values at each concentration for each cell lines were then calculated based on the dose response curve. Twelve randomly selected lymphoblastoid cell lines were used to repeat the cytotoxicity studies three months later. In addition, to functionally characterize the effect of the candidate genes on the sensitivity to both drugs, drug cytotoxicity with human tumor cell lines also was analyzed using an MTS assay. The experimental procedures were similar to those for the lymphoblastoid cell lines, except that the cells were incubated overnight in 96 well plates before addition of the two drugs.
(§3) Transient transfection and RNA interference: The human breast cancer cell line, MDA-MB-231, and the human pancreatic cancer cell line, SU86, were used for siRNA studies. The LIPOFECTAMINE™ RNAiMAX reagent (Invitrogen, Carlsbad, Calif.) was used for transient transfection of siRNA according to the manufacturer's instructions. Briefly, cells were growing adhesively until they reached 30-50% confluence in a 6-well plate, and then transfected. siRNAs including NT5C3-siRNA, FKBP5-siRNA and Allstars negative control siRNA (Qiagen) at a final concentration of 50 nM, as well as 5 μL, of LIPOFECTAMINE™ RNAiMAX reagent, were preincubated with 250 μL, reduced serum medium (Invitrogen) for 5 minutes at room temperature before being mixed together. After incubation of the siRNA and LIPOFECTAMINE™ reagent mixtures for 20 minutes at room temperature, this mixture was added to cells in 2 ml culture medium supplied with 10% FBS. Cells were harvested for further assays 48 hours post-transfection.
(§4) Transient transfections were first performed with NT5C3 and FKBP5 specific siRNAs. Western blots verified that both genes were knocked down in both tumor cell lines (FIG. 21A and FIG. 22A). […] That relationship also was confirmed by knockdown experiments performed with FKBP5 specific siRNA.

[3] = test system: SU86 pancreatic cancer cells; experiment: as above; assay type: cell-based, human; conditions: for Change of drug sensitivity after FKBP5 siRNA: FKBP5 specific siRNA vs negative siRNA
Description: as §2, §3, §4

SU86 cells = experiment: Caspase-3/7 activity assay in siRNA-transfected cells; assay type: cell-based, human; conditions: increasing drug concentrations, 72 hours, compared with negative siRNA
Description: (§5) Error bars represent SEM values for 3 independent experiments.
(§6) Caspase-3/7 activity assay: The caspase-3 activity of siRNA-transfected cells was detected according to the manufacture's protocol using CASPASE-GLO® 3/7 Assay kit (Promega BioSciences, San Luis Obispo, Calif.). Once a proluminescent caspase-3/7 substrate containing the tetrapeptide sequence DEVD is cleaved by caspase-3/7, it will release a substrate for luciferase (amino-luciferin). […] CASPASE-GLO® 3/7 Reagent (100 μl; an equal volume to the cell suspension) was added and incubated for 1 hour at room temperature, followed by detection of luminescence with a luminometer. Wells containing culture medium alone were used as controls.
(§7) One possibility would involve the blockade of apoptosis signaling pathways as a result of FKBP5 knock-down. FKBP5 has been reported to be involved in apoptosis through a calcineurin-dependent pathway (Giraudier et al. Blood (2002) 100:2932-2940). To test that hypothesis, caspase-3/7 activity assays were performed to determine whether alterations in FKBP5 expression might influence apoptotic signaling. […] Specific mechanisms by which FKBP5 might influence apoptosis will require future clarification.

MDA-MB-231 cells = experiment: as above; assay type: cell-based, human; conditions: increasing drug concentrations, 72 hours, compared with negative siRNA
Description: as §5, §6, §7

[4] = test system: lymphoblastoid cell lines; experiment: Intracellular active metabolites by HPLC after drug treatment; conditions: after AraC treatment
Description: To measure the intracellular metabolite levels in drug-treated lymphoblastoid cell lines, an HPLC assay was developed to measure AraCDP, AraCTP as well as dFdCDP and dFdCTP. […] Five×10^6 cells were centrifuged and washed with ice-cold phosphate buffered saline (PBS), followed by resuspension in 135 μL, of ice-cold PBS with 15 μL, of 100 μM AraCTP or dFdCTP as internal standards. Subsequently 50 μL, of 40% ice cold TCA was added, and the mixture was vortexed for 1 minute and chilled on ice for 20 minutes, followed by centrifugation. The supernatant was neutralized by adding 400 μL, of freshly prepared trioctylamine:trichlorotrifluoroethane (1:4). After centrifugation at 4° C. for 1 minute, the aqueous phase (nucleotide extract) was removed and stored at −20° C. for HPLC analysis.
Nucleotide analogue metabolites were separated from native nucleotides on a ZirChrom SAX HPLC column in HPLC assay. […] Mobile phase A was 10 mM K2HPO4 and 40 mM NaCl, pH 6.8. Mobile phase B was 100 mM K2HPO4 and 400 mM K2HPO4, pH 6.8. Detection was performed by monitoring the absorbance with a photo-diode array between 240-290 nm to obtain a typical chromatogram. The amount of intracellular metabolites in 5×10^6 cells was quantified with a standard curve prepared by spiking the 5×10^6 untreated control cells with pure compound, immediately followed by nucleotide extraction.

in vitro = assay type: cell-based; conditions: human
Description: as §1

[5] = test system: patients with pancreatic cancer; conditions: patients treated with gemcitabine; cited from earlier work
[6] = test system: lymphoblastoid cell lines; experiment: Preliminary gemcitabine cytotoxicity, MTS assay, initial 71 cell lines; assay type: cell-based; conditions: Homo sapiens, read-out: IC50 values (the drug concentration that inhibited cell growth 50%), variation across initial 71 lymphoblastoid cell lines, 48 hours
Description: Gemcitabine cytotoxicity: Gemcitabine cytotoxicity after drug exposure is a major phenotype that is determined in the course of phenotype-genotype association studies for the lymphoblastoid cell lines. Increasing concentrations of gemcitabine are used to perform the cytotoxicity studies in a 96-well plate format. Approximately 5×10^5 lymphoblastoid cells are incubated overnight in each well before addition of the drug. The cells are then incubated for 48 hours with gemcitabine at 8 different concentrations, ranging from 10^−4 μM to 100 μM. Cytotoxicity is determined using the MTS assay. All studies are performed in triplicate, and both IC50 and LC50 values are calculated. To avoid confounding factors, cytotoxicity studies are performed with equal numbers of cell lines from each ethnic group in every experiment.
IC50 data have been obtained for 71 of 203 cell lines (the 71 cell lines for which Perlegen genome-wide SNP data is available). Significant variation in IC50 values was observed just for the initial 71 cell lines studied (FIG. 14). Each square in FIG. 14 represents an individual sample, and the colors represent different ethnic groups.

thymidine kinase 2 (TK2) = molecular target: T1, thymidine kinase 2 (TK2) (Homo sapiens, UniProt O00142); conditions: as well as deoxycytidine; cited from earlier work
T1 sequence (O00142 34-265): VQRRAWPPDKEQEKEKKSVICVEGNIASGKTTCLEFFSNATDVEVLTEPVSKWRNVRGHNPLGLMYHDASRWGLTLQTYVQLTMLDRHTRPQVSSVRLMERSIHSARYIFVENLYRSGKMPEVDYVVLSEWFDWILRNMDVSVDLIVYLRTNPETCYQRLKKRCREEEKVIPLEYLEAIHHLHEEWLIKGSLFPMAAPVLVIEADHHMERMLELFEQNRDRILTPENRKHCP

[7] = average of 7 resistant cell samples
[8] = average of 7 sensitive cell samples
[9] = NT5C3 specific siRNA vs negative siRNA

SMILES | CC50 [1] [nM] | Change of drug sensitivity after FKBP5 siRNA [2] | Change of drug sensitivity after FKBP5 siRNA [3] | caspase-3/7 activity in FKBP5 siRNA-treated cells (SU86 cells) | caspase-3/7 activity in FKBP5 siRNA-treated cells (MDA-MB-231 cells) | AraCDP, Resistant, Average ± SEM [4, 7] | AraCTP, Resistant, Average ± SEM [4, 7] | AraCDP, Sensitive, Average ± SEM [4, 8] | AraCTP, Sensitive, Average ± SEM [4, 8] | CC50 at 72 h (in vitro) [nM] | Change of drug sensitivity (dose response curve) after NT5C3 siRNA [2, 9] | Change of drug sensitivity (dose response curve) after NT5C3 siRNA [3, 9] | patients with life expectancies of over one year [5] | IC50 [6] [nM] | phosphorylation by TK2 relative to deoxycytidine (thymidine kinase 2 (TK2))
Nc1ccn([C@@H]2O[C@H](CO)[C@@H](O)[C@@H]2O)c(=O)n1 [AraC, cytosine arabinoside] | 8400 ± 14300 | desensitized | desensitized | significantly decreased | significantly decreased | 0.65 ± 0.13 | 2.62 ± 0.40 | 1.02 ± 0.18 | 4.43 ± 0.56 |  |  |  |  |  | 
Nc1ccn([C@@H]2O[C@H](CO)[C@@H](O)C2(F)F)c(=O)n1 [gemcitabine, 2′,2′-difluorodeoxycytidine] |  | desensitized | desensitized | significantly decreased | significantly decreased |  |  |  |  | 25.3 ± 30.7 | increased sensitivity | increased sensitivity | approximately 20% | 4 to 80 | 5-10%
